According to PMC13242511, “Disrupting Notch signalling by a small molecule inhibiting dihydroorotate dehydrogenase activity” (Scientific Reports, 2026):

Legend:
Type in all cases: cell-based
MDA-MB-468 cells [1] = assay: Growth inhibition, metabolic activity (CellTiter-Glo); settings: Homo sapiens; MDA-MB-468, six days; read-out: approximated IC50, metabolic activity
Source text: (§1) We next investigated whether compounds A-E affected growth and viability of cell lines from T-cell acute lymphoblastic leukaemia (T-ALL) and breast cancer, two tumour types in which elevated Notch signalling has been implicated in tumorigenesis. […] When testing analogues of compounds B and C, five of the seven B analogues and one of the two C analogues produced dose–response curves and IC50s, which however were higher compared to the original hits (Supplemental Fig. 5A; IC50s are presented in Supplemental Table 6).
(§2) Compounds were spotted on white 384-well tissue culture plates (Greiner, cat #781080) using an Echo 525 Acoustic liquid handler (Labcyte). Cells were grown to 80% confluence, detached if required, counted and 20 µl containing 2000–4000 cells per well was then seeded in each well and cultivated for three (4,000 cells seeded) and six days (2,000 cells seeded). […] Luciferase activity (reading out metabolic activity) was determined using the CellTiter-Glo 2.0 kit (CTG, Promega, cat #G9242) following the manufacturer’s instructions and luminescence was measured on a SpectraMaxi3 or Varioscan plate reader (Molecular Devices, Thermofisher).

TALL-1 cells = assay: as above; settings: Homo sapiens; TALL-1, six days; read-out: approximated IC50, growth (metabolic activity)
Source text: as §1, §2

MDA-MB-468 cells [2] = assay: Three dose response gene expression analysis (qRT-PCR); settings: 0.1, 1 and 10 µM, 24 h
Experimental: Total RNA from cell lines was isolated using the RNeasy Mini kit (cat #74104, Qiagen), according to the manufacturer’s instructions. qRT-PCR was performed as described elsewhere[51] with some minor modifications: RNA was reverse transcribed to cDNA using iScript Reverse Transcription Supermix (cat # 1708841, Bio-rad). cDNA was then diluted 1:5 in nuclease free H20. qRT-PCR was performed on a C1000 Touch thermal cycler (Bio-rad) and gene expression was detected with SsoAdvanced Universal SYBR Green Supermix (cat # 1725274, Bio-rad). Gene expression was determined by normalizing to GAPDH mRNA expression levels and fold expression change was calculated using the ΔΔCT method (ΔΔCT = ΔCt sample − Δct control). Primers used in qPCR are shown in Supplemental Table 9.
Adherent breast cancer cells were seeded in 24-well cell culture plates (ThermoFisher, Nunc, Delta surface, cat #144530) and T-ALL cells growing in suspension (Jurkat, RPMI-8402) were seeded in non-adherent 24-well plates (ThermoFisher, Nunc, cat […]). 60.000 cells were seeded and treated with 0.1, 1 and 10 µM of each compound. […] Cells were harvested 24 h post treatment and RNA isolation and gene expression analysis (qRT-PCR) was performed as described above.

NOTCH1 = assay: Cycloheximide chase experiment (half-life of cleaved NOTCH1); parameters: key to NOTCH1 (TMICD), DMSO as reference: western blot band intensity normalised to beta-Actin, relative to DMSO; settings: for NOTCH1/ (TMICD) band intensity: 5 µM
Experimental: HEK293T Notch reporter cells (clone #A1-11) were grown to 80% confluence, detached and counted. 50,000 cells were then seeded in each well of a 24-well tissue culture plate (Sarstedt, cat # 83.3924), cultivated to approximately 85% confluence and treated with 5 µM of the respective compound and 50 µg/ml Cycloheximide (CHX) solution (Sigma-Aldrich, cat #C4859-1ML). Each well was then incubated with 500 µl of compound and CHX solution and compound and CHX solution were added after the indicated intervals to another well for a total time of eight hours. Next, medium was aspirated off and cells were lysed in RIPA buffer (Thermofisher, cat #89900) containing Protease and Phosphatase inhibitors (Thermofisher, cat #78442) for 30 min on ice. Lysates were thoroughly vortexed, centrifugated for 10 min at > 13,000×g and supernatant was transferred to a fresh cup and stored at -80 °C.
Cells were washed in ice-cold PBS and incubated for 30 min on ice with RIPA cell lysis buffer (Thermofisher, cat #89900) containing protease and phosphatase inhibitors (Thermofisher, cat #78442), scraped off and homogenized using a 25G syringe, and subsequently centrifugated for 10 min at > 13,000xg. […] After electrophoresis, gels were placed directly onto a TransBlot Turbo PVDF or nitrocellulose membrane (Bio-rad, cat #1704157 and cat #1704159) and transferred using the “HIGH MW” protocol (Bio-Rad). Subsequently, membranes were blocked for 1 h at room temperature using Clear Milk Blocking Buffer (ThermoFisher, cat #37587) supplemented with 0.1% Tween20 (Sigma-Aldrich, cat #P1379). Detection of antibody binding was performed by using Clarity Western ECL-Substrate (Bio-rad, cat #1705060S). Beta-Actin protein signals were used as a loading control. Western blot membranes were in some experiments stripped after development (indicated in the figure in each respective case) by washing the membranes twice for 10 min in PBS, followed by incubation in membranes in western blot stripping buffer (ThermoFisher, cat #21059) for 30 min at room temperature and gentle agitation. Stripped membranes were washed twice with PBS and incubated for 30 min in blocking buffer before incubation with primary antibody. A list of all antibodies used in this study is provided in Supplemental Table 6. Uncropped western blot images are provided in […]. Protein expression levels of western blot bands were quantified using Fiji (V.2.16) with beta-Actin signals for normalisation (Supplemental Table 8). Uncropped western blot images are provided in Supplemental Fig. 10.

[3] = timepoint 0 (hours after cycloheximide)
[4] = timepoint 1 (hours after cycloheximide)
[5] = timepoint 2 (hours after cycloheximide)
[6] = timepoint 4 (hours after cycloheximide)
[7] = timepoint 6 (hours after cycloheximide)
[8] = timepoint 8 (hours after cycloheximide)

SMILES | IC50 (MDA-MB-468 cells [1]) | IC50 (TALL-1 cells) | NOTCH1/ (TMICD) band intensity (NOTCH1; [3]) | NOTCH1 (TMICD) normalized to beta-Actin (used for plots) (NOTCH1; timepoint 0, 5 µM) | NOTCH1 (TMICD), DMSO as reference (NOTCH1; timepoint 0, 5 µM) | NOTCH1/ (TMICD) band intensity (NOTCH1; [4]) | NOTCH1 (TMICD) normalized to beta-Actin (used for plots) (NOTCH1; timepoint 1, 5 µM) | NOTCH1 (TMICD), DMSO as reference (NOTCH1; timepoint 1, 5 µM) | NOTCH1/ (TMICD) band intensity (NOTCH1; [5]) | NOTCH1 (TMICD) normalized to beta-Actin (used for plots) (NOTCH1; timepoint 2, 5 µM) | NOTCH1 (TMICD), DMSO as reference (NOTCH1; timepoint 2, 5 µM) | NOTCH1/ (TMICD) band intensity (NOTCH1; [6]) | NOTCH1 (TMICD) normalized to beta-Actin (used for plots) (NOTCH1; timepoint 4, 5 µM) | NOTCH1 (TMICD), DMSO as reference (NOTCH1; timepoint 4, 5 µM) | NOTCH1/ (TMICD) band intensity (NOTCH1; [7]) | NOTCH1 (TMICD) normalized to beta-Actin (used for plots) (NOTCH1; timepoint 6, 5 µM) | NOTCH1 (TMICD), DMSO as reference (NOTCH1; timepoint 6, 5 µM) | NOTCH1/ (TMICD) band intensity (NOTCH1; [8]) | NOTCH1 (TMICD) normalized to beta-Actin (used for plots) (NOTCH1; timepoint 8, 5 µM) | NOTCH1 (TMICD), DMSO as reference (NOTCH1; timepoint 8, 5 µM) | also measured
Cc1ccc2[nH]c3c(c2c1)CCOC31CCN(Cc2ccccc2-c2ccccc2)CC1 [compound B] | 1.1 µM | 6.7 µM |  |  |  |  |  |  |  |  |  |  |  |  |  |  |  |  |  |  | 
CC(C)(C)c1ccc(Oc2ccc(N)cn2)cc1 [CB-103, reference compound] |  | 0.3 µM |  |  |  |  |  |  |  |  |  |  |  |  |  |  |  |  |  |  | HES4 expression (MDA-MB-468 cells [2]): upregulation
CC(C)(C(=O)NCC(F)(F)C(F)(F)F)C(=O)N[C@@H]1C(=O)Nc2ccccc2-c2ccccc21 [RO4929097, reference compound] |  |  | 20583.6 | 1.3 | 1.0 | 14235.7 | 0.8 | 0.6 | 11993.7 | 0.6 | 0.5 | 14001.0 | 0.8 | 0.6 | 9107.8 | 0.8 | 0.6 | 9737.6 | 0.7 | 0.53 | c-MYC expression (MDA-MB-468 cells [2]): did not reduce; protein stability of NOTCH1 (in words) (NOTCH1; cycloheximide chase, Supplemental Fig. 8B): enhanced protein stability
COc1cccc(CNc2ccc(N3CCCCC3)cc2)c1OCc1cccs1 [compound C] | 1.7 µM |  | 11149.0 | 0.8 | 1.0 | 9563.6 | 0.7 | 0.9 | 5022.2 | 0.4 | 0.5 | 5169.6 | 0.347 | 0.442 | 6218.3 | 0.362 | 0.46 | 4511.9 | 0.277 | 0.352 | 
